Test results from ChEMBL document CHEMBL4346677, “Compounds based on 5-(perylen-3-ylethynyl)uracil scaffold: High activity against tick-borne encephalitis virus and non-specific activity against enterovirus A” (Eur J Med Chem, 2019).
≈ marks a conversion by molar mass, not a printed value. Calls of active or inactive are those of the source. The calls are words filed in the database; no cut-off is given here.

Columns and labels:
[1] = Cytotoxicity against human RD cells assessed as reduction in cell viability after 24 hrs by microscopic method; format: cell-based
[2] = Cytotoxicity against PEK cells assessed as reduction in cell viability after 7 days by microscopic method; format: cell-based, Sus scrofa; settings: pig
Echovirus = assay: Antiviral activity against Echovirus 30 isolate 48461; format: functional, organism-based
[3] = Cytotoxicity against PEK cells assessed as reduction in cell viability after 24 hrs by microscopic method; format: cell-based, Sus scrofa; settings: pig
RD [4] = assay: Cytotoxicity against human RD cells assessed as formation of syncytium-like patterns of cells at 50 uM after 7 days by microscopic method; format: cell-based; settings: 168 h
[5] = system: Tick-borne encephalitis virus; assay: Antiviral activity against TBEV Absettarov infected in PEK cells assessed as plaque reduction preincubated for 1 hr followed by overlaying with 1.26% methylcellulose and measured after 6 days by gentian violet staining-based assay; format: functional, organism-based
[6] = Cytotoxicity against African green monkey Vero cells assessed as reduction in cell viability after 7 days by microscopic method; format: cell-based; settings: chlorocebus sabaeus
[7] = Solubility of compound in 15% DMSO by spectrophotometric analysis; format: physicochemical
Enterovirus A71 = assay: Antiviral activity against Enterovirus A71 isolate 46973 infected in human RD cells assessed as reduction in virus induced cytopathic effect preincubated with viral suspension for 1 hr followed by cell addition measured after 5 to 7 days; format: functional, organism-based
[8] = Cytotoxicity against PEK cells assessed as formation of syncytium-like patterns of cells at 50 uM after 7 days by microscopic method; format: cell-based, Sus scrofa; settings: pig, 168 h
Vero [9] = assay: Cytotoxicity against African green monkey Vero cells assessed as formation of syncytium-like patterns of cells at 50 uM after 7 days by microscopic method; format: cell-based; settings: chlorocebus sabaeus, 168 h
[10] = Cytotoxicity against human RD cells assessed as reduction in cell viability after 7 days by microscopic method; format: cell-based
Poliovirus 1 = assay: Antiviral activity against poliovirus type 1 sabin 1; format: functional, organism-based
[11] = Cytotoxicity against African green monkey Vero cells assessed as reduction in cell viability after 24 hrs by microscopic method; format: cell-based; settings: chlorocebus sabaeus
[12] = Selectivity index, ratio of CC50 for MDCK cells to EC50 for H3N2 infected in MDCK cells; format: toxicity, cell-based; settings: dog, read-out: Ratio CC50/EC50
[13] = Selectivity index, ratio of CC50 for human Huh7.5 cells to EC50 for HCV JFH1 infected in Huh7.5 cells; format: toxicity, cell-based; settings: read-out: Ratio CC50/EC50
Human alphaherpesvirus 2 = assay: Antiviral activity against HSV-2 infected in African green monkey Vero cells assessed as plaque reduction preincubated for 10 mins inocula removed after 1 hr followed by overlaying with 2% methylcellulose and measured after 1 to 2 days by crystal violet staining based assay; format: functional, organism-based; settings: Human alphaherpesvirus 2, Vero
Human alphaherpesvirus 1 = assay: Antiviral activity against HSV-1 infected in African green monkey Vero cells preincubated with virus for 5 mins; format: functional, organism-based; settings: Human alphaherpesvirus 1, Vero
Influenza A virus [14] = assay: Antiviral activity against influenza A virus H1N1 infected in dog MDCK cells assessed as plaque reduction preincubated for 10 mins inocula removed after 1 hr followed by overlaying with 0.8% agarose and measured after 1 to 2 days by crystal violet staining based assay; format: functional, organism-based
[15] = Selectivity index, ratio of CC50 for African green monkey Vero cells to EC50 for HSV-1 infected in Vero cells; format: toxicity, cell-based; settings: read-out: Ratio CC50/EC50
Hepatitis C virus = assay: Antiviral activity against HCV JFH1 infected in human Huh7.5 cells assessed as NS3 expression by western blot analysis; format: functional, organism-based, Hepacivirus hominis; settings: JFH1, Huh7.5
[16] = system: Vesicular stomatitis virus; assay: Antiviral activity against VSV infected in African green monkey Vero cells assessed as plaque reduction preincubated for 10 mins inocula removed after 1 hr followed by overlaying with 2% methylcellulose and measured after 1 to 2 days by crystal violet staining based assay; format: functional, organism-based
[17] = Selectivity index, ratio of CC50 for African green monkey Vero cells to EC50 for HSV-2 infected in Vero cells; format: toxicity, cell-based; settings: read-out: Ratio CC50/EC50
[18] = Selectivity index, ratio of CC50 for African green monkey Vero cells to EC50 for Sindbis infected in Vero cells; format: toxicity, cell-based; settings: read-out: Ratio CC50/EC50
Sindbis virus = assay: Antiviral activity against Sindbis virus infected in African green monkey Vero cells assessed as plaque reduction preincubated for 10 mins inocula removed after 1 hr followed by overlaying with 2% methylcellulose and measured after 1 to 2 days by crystal violet staining based assay; format: functional, organism-based
Influenza A virus [19] = assay: Antiviral activity against influenza A virus H3N2 infected in dog MDCK cells assessed as plaque reduction preincubated for 10 mins inocula removed after 1 hr followed by overlaying with 0.8% agarose and measured after 1 to 2 days by crystal violet staining based assay; format: functional, organism-based
[20] = Selectivity index, ratio of CC50 for MDCK cells to EC50 for H1N1 infected in MDCK cells; format: toxicity, cell-based; settings: dog, read-out: Ratio CC50/EC50
[21] = Selectivity index, ratio of CC50 for African green monkey Vero cells to EC50 for VSV infected in Vero cells; format: toxicity, cell-based; settings: read-out: Ratio CC50/EC50
[22] = Selectivity index, ratio of CC50 for mouse NIH3T3 cells to EC50 for mCMV infected in NIH3T3 cells; format: toxicity, cell-based; settings: read-out: Ratio CC50/EC50
Murid betaherpesvirus 1 = assay: Antiviral activity against mCMV infected in mouse NIH3T3 cells assessed as reduction in virus induced cytopathogenicity; format: functional, organism-based; settings: Murid betaherpesvirus 1, NIH3T3
RD [23] = assay: Cytotoxicity against human RD cells assessed as reduction in metabolic activity at >20 uM after 24 hrs by CellTiter-Blue assay; format: ADME, cell-based
[24] = Cytotoxicity against PEK cells assessed as reduction in metabolic activity at >20 uM after 24 hrs by CellTiter-Blue assay; format: ADME, cell-based, Sus scrofa; settings: pig
Vero [25] = assay: Cytotoxicity against African green monkey Vero cells assessed as reduction in metabolic activity at >20 uM after 24 hrs by CellTiter-Blue assay; format: ADME, cell-based; settings: chlorocebus sabaeus
[26] = Enterovirus A, isolate 46973, RD, read-out: EC50

Compound	CC50 at 24 h [1] [µM]	CC50 at 168 h [2] [µM]	Activity (Echovirus)	CC50 at 24 h [3] [µM]	Activity (RD [4])	EC50 [5] [µM]	CC50 at 168 h [6] [µM]	solubility [7] [µM]	EC50 (Enterovirus A71)	Activity [8]	Activity (Vero [9])	CC50 at 168 h [10] [µM]	Activity (Poliovirus 1)	CC50 at 24 h [11] [µM]	also measured
CC(C)(C)C(=O)OCn1c(=O)c(C#Cc2ccc3c4cccc5cccc(c6cccc2c63)c54)cn(CC(=O)NCCCCO)c1=O	19	> 50	inactive	> 50	Toxic	0.00069	> 50	5.3 (≈ 3.34 µg/mL)	Not Active	Toxic	Toxic	38	inactive	> 50	
O=c1[nH]c(=O)n([C@H]2C[C@H](O)[C@@H](CO)O2)cc1C#Cc1ccc2c3cccc4cccc(c5cccc1c52)c43															selectivity ratio [12]: > 3000; selectivity ratio [13]: > 3000; EC50 (Human alphaherpesvirus 2): 0.002 to 0.283 µM; EC50 (Human alphaherpesvirus 1): 0.048 µM; EC50 (Influenza A virus [14]): 0.002 to 0.283 µM; selectivity ratio [15]: > 3000; EC50 (Hepatitis C virus): 0.002 to 0.283 µM; EC50 [16]: 0.002 to 0.283 µM; selectivity ratio [17]: > 3000; selectivity ratio [18]: > 3000; EC50 (Sindbis virus): 0.002 to 0.283 µM; EC50 (Influenza A virus [19]): 0.002 to 0.283 µM; selectivity ratio [20]: > 3000; selectivity ratio [21]: > 3000; selectivity ratio [22]: > 3000; EC50 (Murid betaherpesvirus 1): 0.002 to 0.283 µM
O=C(Cn1cc(C#Cc2ccc3c4cccc5cccc(c6cccc2c63)c54)c(=O)[nH]c1=O)NCCCCO	76	> 50	inactive	> 50	Toxic	0.02	> 50			Toxic	Toxic	81	inactive	> 50	Activity (RD [23]): Toxic; Activity [24]: Non-Toxic; EC50 (Enterovirus A71; [26]): 56 µM; Activity (Vero [25]): Non-Toxic
CC(C)(C)C(=O)OCn1c(=O)c(C#Cc2ccc3c4cccc5cccc(c6cccc2c63)c54)cn(CC(=O)NCCCO)c1=O	19	> 50	inactive	> 50	Toxic	0.00043	> 50	49 (≈ 30.2 µg/mL)	Not Active	Toxic	Toxic	10	inactive	38	
CC(C)(C)C(=O)OCn1c(=O)c(C#Cc2ccc3c4cccc5cccc(c6cccc2c63)c54)cn(CC(=O)N(CCO)CCO)c1=O	19	> 50	inactive	> 50	Toxic	0.00044	> 50	1000 (≈ 648 µg/mL)	Not Active	Toxic	Toxic	14	inactive	38	
CC(C)(CO)[C@@H](O)CNC(=O)Cn1cc(C#Cc2ccc3c4cccc5cccc(c6cccc2c63)c54)c(=O)[nH]c1=O	76	> 50	inactive	> 50	Toxic	0.019	> 50			Toxic	Toxic	76	inactive	38	Activity (RD [23]): Toxic; Activity [24]: Non-Toxic; EC50 (Enterovirus A71; [26]): 108 µM; Activity (Vero [25]): Non-Toxic
O=c1[nH]c(=O)n([C@@H]2O[C@H](CO)[C@@H](O)[C@@H]2O)cc1C#Cc1ccc2c3cccc4cccc(c5cccc1c52)c43		> 50	inactive	> 50	Toxic	0.021				Toxic	Toxic		inactive		selectivity ratio [12]: > 3000; selectivity ratio [13]: > 3000; EC50 (Human alphaherpesvirus 2): 0.002 to 0.283 µM; EC50 (Human alphaherpesvirus 1): 0.002 to 0.283 µM; EC50 (Influenza A virus [14]): 0.002 to 0.283 µM; selectivity ratio [15]: > 3000; EC50 (Hepatitis C virus): 0.002 to 0.283 µM; EC50 [16]: 0.002 to 0.283 µM; selectivity ratio [17]: > 3000; selectivity ratio [18]: > 3000; EC50 (Sindbis virus): 0.002 to 0.283 µM; EC50 (Influenza A virus [19]): 0.002 to 0.283 µM; selectivity ratio [20]: > 3000; selectivity ratio [21]: > 3000; selectivity ratio [22]: > 3000; EC50 (Murid betaherpesvirus 1): 0.002 to 0.283 µM
